Active and inactive are the calls of the source. The rule behind the calls is not given here.
Legend:
[1] = target: T1, Tyrosinase (Agaricus bisporus, UniProt O42713); assay: Inhibition of monophenolase activity of mushroom tyrosinase assessed as reduction in dopachrome formation using L-Tyrosine substrate by UV-Vis spectrophotometry
T1 sequence (O42713 whole entry): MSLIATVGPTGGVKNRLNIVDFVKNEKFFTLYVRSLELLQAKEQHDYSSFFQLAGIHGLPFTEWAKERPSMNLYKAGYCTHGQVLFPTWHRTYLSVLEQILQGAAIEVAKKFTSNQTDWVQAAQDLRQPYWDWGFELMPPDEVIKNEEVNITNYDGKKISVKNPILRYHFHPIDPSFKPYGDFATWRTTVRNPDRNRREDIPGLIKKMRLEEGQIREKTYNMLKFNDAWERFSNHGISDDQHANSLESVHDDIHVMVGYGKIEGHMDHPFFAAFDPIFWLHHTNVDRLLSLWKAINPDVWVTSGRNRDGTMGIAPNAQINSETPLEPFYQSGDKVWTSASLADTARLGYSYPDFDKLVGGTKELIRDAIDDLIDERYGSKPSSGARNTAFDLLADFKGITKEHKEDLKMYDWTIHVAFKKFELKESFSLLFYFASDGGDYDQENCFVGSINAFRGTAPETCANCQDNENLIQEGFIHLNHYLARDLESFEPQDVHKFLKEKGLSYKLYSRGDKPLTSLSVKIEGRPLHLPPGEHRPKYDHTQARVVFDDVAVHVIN

[2] = target: T2, Tyrosinase (Agaricus bisporus) (UniProt O42713)
T2 sequence (whole entry): T1 sequence (O42713 whole entry)
Description: Inhibition of diphenolase activity of mushroom tyrosinase assessed as inhibition constant for enzyme-substrate-inhibitor complex by measuring reduction in dopachrome formation using L-DOPA substrate by UV-Vis spectrophotometry

[3] = target: T2, Tyrosinase (Agaricus bisporus); assay: Binding affinity to mushroom tyrosinase assessed as Stern-Volmer quenching constant by fluorescence spectrophotometry
[4] = target: T1, Tyrosinase
Description: Inhibition of monophenolase activity of mushroom tyrosinase assessed as inhibition constant for free enzyme-inhibitor complex by measuring reduction in dopachrome formation using L-Tyrosine substrate by UV-Vis spectrophotometry

[5] = target: T1, Tyrosinase; assay: Inhibition of diphenolase activity of mushroom tyrosinase assessed as reduction in dopachrome formation using L-DOPA substrate by UV-Vis spectrophotometry
[6] = target: T1, Tyrosinase; remark: listed apart in the source
Description: Mixed type inhibition of diphenolase activity of mushroom tyrosinase assessed as reduction in dopachrome formation using L-DOPA substrate by UV-Vis spectrophotometry based Dixon plot analysis

[7] = target: T2, Tyrosinase (Agaricus bisporus); assay: Inhibition of monophenolase activity of mushroom tyrosinase assessed as reduction in steady state rate monophenolase activity for oxidation of L-tyrosine substrate at 0.5 to 16 uM by UV-Vis spectrophotometry
[8] = target: T2, Tyrosinase (Agaricus bisporus); remark: listed apart in the source
Description: Inhibition of monophenolase activity of mushroom tyrosinase assessed as inhibition constant for enzyme-substrate-inhibitor complex by measuring reduction in dopachrome formation using L-Tyrosine substrate by UV-Vis spectrophotometry

[9] = target: T1, Tyrosinase; remark: listed apart in the source
Description: Inhibition of diphenolase activity of mushroom tyrosinase assessed as inhibition constant for free enzyme-inhibitor complex by measuring reduction in dopachrome formation using L-DOPA substrate by UV-Vis spectrophotometry

[10] = target: T1, Tyrosinase; remark: listed apart in the source
[11] = target: T2, Tyrosinase (Agaricus bisporus); assay: Inhibition of monophenolase activity of mushroom tyrosinase assessed as increase in lag period of monophenolase for oxidation of L-tyrosine substrate at 0.5 to 16 uM by UV-Vis spectrophotometry
[12] = target: T2, Tyrosinase (Agaricus bisporus); assay: Binding affinity to mushroom tyrosinase assessed as binding constant by fluorescence spectrophotometry
[13] = target: T1, Tyrosinase; remark: listed apart in the source
Description: Competitive type inhibition of monophenolase activity of mushroom tyrosinase assessed as reduction in dopachrome formation using L-Tyrosine substrate by UV-Vis spectrophotometry based Dixon plot analysis

[14] = target: T1, Tyrosinase; remark: listed apart in the source
Description: Competitive type inhibition of diphenolase activity of mushroom tyrosinase assessed as reduction in dopachrome formation using L-DOPA substrate by UV-Vis spectrophotometry based Dixon plot analysis

[15] = target: T2, Tyrosinase (Agaricus bisporus); assay: Binding affinity to mushroom tyrosinase by fluorescence spectrophotometry
[16] = target: T2, Tyrosinase (Agaricus bisporus); assay: Inhibition of monophenolase activity of mushroom tyrosinase assessed as reduction in N-acetyl-L-dopaquinone formation at 25 uM using N-acetyl-L-tyrosine substrate incubated up to 60 mins by HPLC analysis
[17] = target: T2, Tyrosinase (Agaricus bisporus); assay: Inhibition of monophenolase activity of mushroom tyrosinase assessed as lag time period of monophenolase for oxidation of L-tyrosine substrate at 16 uM by UV-Vis spectrophotometry (reference value: […] secs)

SMILES | IC50 [1] | Kis [2] | KSV [3] | Ki [4] | IC50 [5] | Ki [6] | inhibition [7] | Kis [8] | Ki [9] | Ki [10] | inhibition [11] | KA [12] | Ki [13] | Ki [14] | Activity [15] | inhibition [16] | TIME [17]
COc1cc([C@@H]2Oc3c(O)cc(-c4oc5cc(O)cc(O)c5c(=O)c4O)cc3[C@H]2CO)ccc1O | 7.6 µM | 146 µM | 0.0634 ×10⁴ L/mol | 4.6 µM | 35.9 µM | 36.7 µM | Dose-dependent effect | 6.4 µM | 38.3 µM | 4.7 µM | Dose-dependent effect | 2.25 ×10⁶ L/mol |  |  |  |  | 
COc1cc([C@H]2Oc3cc(O)cc(O)c3C(=O)[C@@H]2O)ccc1O | 51.2 µM |  | 0.0222 ×10⁴ L/mol |  | 150 µM |  |  |  |  |  |  | 0.849 ×10⁶ L/mol | 20.5 µM | 73.4 µM |  |  | 
O=C1c2c(O)cc(O)cc2O[C@H](c2ccc(O)c(O)c2)[C@H]1O |  |  | 0.0492 ×10⁴ L/mol |  |  |  |  |  |  |  |  | 0.918 ×10⁶ L/mol |  |  |  |  | 
O=C1c2c(O)cc(O)cc2O[C@H](c2ccc(O)cc2)[C@H]1O [DIHYDROKAEMPFEROL] | 73.6 µM |  | 0.0199 ×10⁴ L/mol |  | > 200 µM |  |  |  |  |  |  | 0.094 ×10⁶ L/mol | 42 µM |  | Dose-dependent effect |  | 
COc1cc([C@H]2Oc3ccc([C@H]4Oc5cc(O)cc(O)c5C(=O)[C@@H]4O)cc3O[C@@H]2CO)ccc1O [ISOSILYBIN A] | 2.1 µM | 29.5 µM | 0.267 ×10⁴ L/mol | 1.1 µM | 16.7 µM | 12.4 µM | Dose-dependent effect | 3.2 µM | 12.3 µM | 1.1 µM | Dose-dependent effect | 6.31 ×10⁶ L/mol |  |  | Dose-dependent effect | Active | 0.0833 h

Continued, values first:

IC50 [1] | Kis [2] | KSV [3] | Ki [4] | IC50 [5] | Ki [6] | inhibition [7] | Kis [8] | Ki [9] | Ki [10] | inhibition [11] | KA [12] | Ki [13] | Ki [14] | Activity [15] | inhibition [16] | TIME [17] | SMILES
1.7 µM | 27.6 µM | 0.261 ×10⁴ L/mol | 0.7 µM | 12.1 µM | 8.5 µM | Dose-dependent effect | 3.7 µM | 8.4 µM | 0.7 µM | Dose-dependent effect | 6.16 ×10⁶ L/mol |  |  |  |  |  | COc1cc(C2Oc3cc([C@H]4Oc5cc(O)cc(O)c5C(=O)[C@@H]4O)ccc3OC2CO)ccc1O (mixture of isomers) [SILIBININ]
4.9 µM | 25.2 µM | 0.0882 ×10⁴ L/mol | 4.3 µM | 19.8 µM | 11.6 µM | Dose-dependent effect | 8 µM | 12.7 µM | 4.2 µM | Dose-dependent effect | 2.42 ×10⁶ L/mol |  |  |  |  |  | COc1cc([C@@H]2Oc3ccc([C@H]4Oc5cc(O)cc(O)c5C(=O)[C@@H]4O)cc3O[C@H]2CO)ccc1O [ISOSILYBIN B]
3.2 µM | 37.3 µM | 0.192 ×10⁴ L/mol | 2.1 µM | 28.8 µM | 15.4 µM | Dose-dependent effect | 2.9 µM | 15.2 µM | 2.1 µM | Dose-dependent effect | 3.55 ×10⁶ L/mol |  |  |  |  |  | COc1cc([C@@H]2Oc3c(O)cc([C@H]4Oc5cc(O)cc(O)c5C(=O)[C@@H]4O)cc3[C@H]2CO)ccc1O [SILICRISTIN A]
4.5 µM | 91.3 µM | 0.109 ×10⁴ L/mol | 2.8 µM | 44.9 µM | 35.5 µM | Dose-dependent effect | 14 µM | 34.7 µM | 2.8 µM | Dose-dependent effect | 2.88 ×10⁶ L/mol |  |  |  |  |  | COc1cc([C@H]2Oc3c(O)cc([C@H]4Oc5cc(O)cc(O)c5C(=O)[C@@H]4O)cc3[C@@H]2CO)ccc1O [SILICRISTIN B]
2.6 µM | 90.8 µM | 0.193 ×10⁴ L/mol | 2.1 µM | 16.5 µM | 14.9 µM | Dose-dependent effect | 2.3 µM | 15 µM | 1.7 µM | Dose-dependent effect | 5.81 ×10⁶ L/mol |  |  |  |  |  | COc1cc([C@@H]2[C@H]3CO[C@@]4(O)C(=O)[C@@H]2C=C([C@H]2Oc5cc(O)cc(O)c5C(=O)[C@@H]2O)[C@@H]34)ccc1O [SILIDIANIN]
